In brackets after ≈: the same amount, converted by molar mass.
Tests used:
Apis mellifera = details: acute, mortality
Bibionidae = details: chronic/long-term
Colinus virginianus = details: acute; oral; diet; mortality
Daphnia magna = details: chronic/long-term; duration: 21 days; other
Lepomis macrochirus = details: acute; duration: 96 hours; mortality
Oncorhynchus mykiss = details: chronic/long-term; duration: 21 days
Typhlodromus pyri = details: not reported; other
Aphidius rhopalosiphi = test: LR50; higher = less toxic; details: not reported; other

`Cc1cc(C2CC2)nc(Nc2ccccc2)n1` [Cyprodinil] gave an LD50 (Anas platyrhynchos; acute, oral, unspecified, mortality) greater than 500 mg/kg, an NOEC (Anas platyrhynchos; reproductive) of 64 mg/kg and an LD50 (Apis mellifera; duration: 48 hours, dermal) greater than 784 µg/piece. The LD50 (Apis mellifera; oral, unspecified) was greater than 112 µg/piece, the NOEC (Bibionidae; duration: 27 days, other) was 80 mg/kg and the NOEC (Bibionidae; duration: 28 days, no effects) was 0.24 mg/L. It also gave an LC50 (Colinus virginianus) greater than 743 mg/kg, an NOEC (Daphnia magna) of 0.0082 mg/L and an LC50 (Lepomis macrochirus) of 2.17 µg/mL (≈ 9.63 µM). The NOEC (Oncorhynchus mykiss) was 0.083 mg/L, the LD50 (Rattus norvegicus; acute, oral, mortality) was greater than 2000 mg/kg and the NOAEL (Rattus norvegicus; chronic, duration: 2 years, M/F, organ weight) was 3 mg/kg-day. It also gave an NOAEL (Rattus norvegicus; reproduction developmental, organ weight) of 72.7 mg/kg-day, an NOAEL (Rattus norvegicus; subchronic, duration: 90 days, histopathology: nonneoplastic) of 3.14 mg/kg-day and an LC50 (Tagia sp.; acute, duration: 14 days, mortality) of 192 mg/kg. The NOEC (Tagia sp.; chronic/long-term, duration: 56 days, reproduction) was 15000 g/ha, the LEL (Typhlodromus pyri) was 750 g/ha and the LR50 (Aphidius rhopalosiphi) was 750 g/ha.

— EPA's ToxValDB 9.5 (doi:10.2903/j.efsa.2006.51r)
